Reference: patent US12492222B2, “Lipophilic enantiomers of desacetylglucosamine muramyl dipeptide with anti-inflammatory and growth promoting activity” (Nutrivert Inc., priority 2020, dated 2025)
Peptide text beside a SMILES is read from it.

Columns and labels:
nursery pigs = assay: Growth rate and feed conversion in freshly weaned nursery pigs fed supplemented feed; type: in vivo; conditions: 0.2 mg/kg feed
Description: The objective of this experiment was to evaluate if supplementation of feed with L-lactate-D-alanine-L-glutamine palmityl ester (LDPP) at 0.2 mg/kg feed increases the growth rate and/or improves the feed conversion in freshly weaned nursery pigs.
Male pigs (barrows) were used in this study. Pigs were weaned at approximately 3 weeks of age, transferred to the nursery, and randomly allotted to 24 nursery pens with 4 pigs per pen. One of 2 dietary treatments, untreated controls (feed without supplement) or LDPP-treatment (0.2 mg LDPP/kg feed), was assigned to each pen, such that 12 pens of 4 pigs were used to evaluate the effect of each diet. Premixes of the treatment compounds were added at 0.1% to mixed diets, which were then pelleted. Phase 1 diet was fed at 6 lb/pig from day 0 to approximately day 8 post-weaning. On day 8 post-weaning, pigs were switched to 12 lb/pig Phase 2 diet which expired approximately on day 18. Once the Phase 2 diet had been consumed, pigs were switched to Phase 3 diet and maintained until termination of the study on day 42. No antibiotics were added to any diet. Diets were formulated to meet or exceed all the nutrient requirements based on the 2012 NRC specifications. Pigs received diets and water ad libitum. Pigs were weighed individually on days 0 and 42 of the experiment. Feed intake per pen was monitored for the weigh period. Although individual pig weights were obtained, the pen was the experimental unit. On day 42, the study was terminated and untreated pigs were retained in the food chain while the treatment pigs were euthanized.
Pen data were converted into individual pig data by dividing by the number of pigs. For three pens in which pigs were euthanized, a time-fractional pig number was used. Body weight gain and calculated feed consumption data were analyzed by pairwise T-test. The overall (true) feed conversion for each treatment was determined by dividing total consumed feed by total weight gains of all pens of each treatment. Treatment differences in feed conversion were statistically evaluated by non-parametric Mann Whitney U test of pen feed conversion data.
For constant body weight gain analyses, the time on feed of the LDPP treated group was modeled to match the weight gain of the untreated control group. Daily body weights and weight gains were modeled by linear interpolation between weights on days 0 and 42. […] From interpolated daily body weight data, daily feed consumption was first calculated as 5% of body weight. The sum of these daily feed uptakes was then divided by the actual weighed feed uptake of each pen, and daily feed uptakes were multiplied by this fraction to arrive at the precise weighed feed uptake per pen. These calculated daily feed uptakes were used to calculate feed uptake by changed times on feed for the LDPP treatment group. Mean feed uptake of the LDPP treatment group was then calculated by subtracting for each pen the previously found day 42 and 41 and the fractional day 40 feed uptake.
Body weight gain and feed consumption data were analyzed by one-way ANOVA and Student's T-test. Differences in feed conversion rates were evaluated from pen FCR data by non-parametric Mann Whitney U test.

broiler chickens = assay: Growth rate and feed conversion in broiler chickens fed supplemented feed; type: in vivo; conditions: for feed conversion rate at constant body weight gain: LDPP 0.2 mg/kg feed, bacitracin 50 mg/kg feed
Description: The objective of this experiment was to evaluate if supplementation of feed with L-lactate-D-alanine-L-glutamine palmityl ester (LDPP) at 0.2 mg/kg feed increases the growth rate and/or improves the feed conversion in broiler chickens, i.e., if it promotes growth by making broiler chickens grow faster and/or require less feed for the same amount of gain in body weight. A secondary objective was to compare the effect of LDPP to that of bacitracin, an industry-standard growth promoting antibiotic.
Freshly hatched female Ross 708 broiler chickens were housed for as single flock for 21 days on a floor pen with used bedding. All chickens received crumbled untreated standard Aviagen 708 starter and grower feeds during this time, with 80% recommended crude protein and without anti-coccidial supplement. After 3 weeks, the chickens were grouped into 38 replicate floor pens of 25 chickens with fresh bedding. Chickens were fed for 24 days from day 21 through termination on day 44 standard crumbled finisher Aviagen 708 finisher feed with 100% protein and 0.0125% amprolium anti-coccidial inclusion. Feed and water were available ad libitum throughout the trial. Thirteen pens each were assigned to untreated controls (feed without supplement) and LDPP-treatment (0.2 mg LDPP/kg feed), and 12 pens were assigned to bacitracin treatment (50 mg bacitracin/kg feed). The experimental unit was the pen rather than individual chickens. Pen weights of chickens were determined on day 21 and 44. Finisher feed uptake was be recorded, and on day 44 residual feed was determined, and the experiment was terminated.
For constant time analyses of the complete 24-day duration of the feeding experiment, the overall (true) feed conversion for each treatment group was determined by dividing total consumed feed by total weight gains of all pens of each treatment group.
For constant body weight gain analyses, the time on feed of the bacitracin and LDPP treated groups was modeled to match the weight gain of the untreated control group. Based on the closely matching body weights and weight gains of standard female Ross 708 broilers, body weight gains per chicken on the last day 44 of the experiment were calculated as the 0.04781 fraction of pen body weight gain day 21-44/surviving chickens per pen. […] Similarly, feed consumption per chicken on day 44 was calculated as the 0.05867 fraction of pen feed uptake day 21-44/surviving chickens per pen. Mean feed uptake per treatment group was then calculated by subtracting the previously found fractional daily feed uptake from each pen.
Body weight gain and feed consumption data were analyzed by one-way ANOVA and Tukey […] connection for multiple comparisons. Group differences in feed conversion rates were evaluated from pen FCR data by non-parametric Mann Whitney U test.

[1] = modeled, 1,653 g constant weight gain

SMILES	improvement of feed conversion rate at constant time versus untreated (nursery pigs; 42 days) [%]	feed conversion rate at constant time (nursery pigs; 42 days, total consumed feed / total weight gain, untreated 1.479)	morbidity and mortality rates between groups (nursery pigs; day 0-42)	body weight gain per pig (nursery pigs; day 0-42 (constant time)) [kg]	increase of weight gain versus untreated nursery pigs (nursery pigs; day 0-42 (constant time), control 22.076 kg) [%]	improvement of feed conversion rate at constant body weight gain versus untreated (nursery pigs; modeled constant weight gain) [%]	more rapid growth compared to controls (nursery pigs; modeled constant weight gain) [days]	feed conversion rate at constant body weight gain (nursery pigs; modeled, 22.076 kg constant weight gain)	time on feed required for weight gain identical to untreated controls (nursery pigs; modeled, 22.076 kg constant weight gain, controls 42 days) [days]	feed conversion rate at constant time (broiler chickens; 0.2 mg/kg feed, 24 days, total consumed feed / total weight gain, untreated 1.818)	morbidity and mortality rates between groups (broiler chickens; 0.2 mg/kg feed, day 21-44)	body weight gain per chicken (broiler chickens; 0.2 mg/kg feed, day 21-44 (24 days constant time))	increase of weight gain versus untreated control chickens (broiler chickens; 0.2 mg/kg feed, day 21-44 (24 days constant time), control 1,653 g) [%]	improvement of feed conversion rate at constant body weight gain versus untreated (broiler chickens; 0.2 mg/kg feed, modeled constant weight gain) [%]	time on feed required for weight gain identical to untreated controls (broiler chickens; 0.2 mg/kg feed, modeled, 1,653 g constant weight gain, controls 24 days) [days]	feed conversion rate at constant body weight gain (broiler chickens; [1])
CCCCCCCCCCCCCCCCOC(=O)[C@H](CCC(N)=O)NC(=O)[C@@H](C)NC(=O)[C@H](C)O [LDPP, hexadecyl (2S)-5-amino-2-[[(2R)-2-[[(2S)-2-hydroxypropanoyl]amino]propanoyl]amino]-5-oxo-pentanoate]	3.8	1.423	did not differ significantly	23.826	7.9	5.5	2.1	1.396	39.921	1.805	did not differ significantly	1,725 g	4.4	1.7	23.13	1.787
CC[C@H](C)[C@H](N)C1=N[C@H](C(=O)N[C@@H](CC(C)C)C(=O)N[C@H](CCC(=O)O)C(=O)N[C@H](C(=O)N[C@H]2CCCCNC(=O)[C@H](CC(N)=O)NC(=O)[C@@H](CC(=O)O)NC(=O)[C@H](Cc3cnc[nH]3)NC(=O)[C@@H](Cc3ccccc3)NC(=O)[C@H]([C@@H](C)CC)NC(=O)[C@@H](CCCN)NC2=O)[C@@H](C)CC)CS1 [bacitracin, reference compound] (HELM PEPTIDE1{[CC[C@H](C)[C@H](N)C1=N[C@H](C(=O)[*:2])CS1].L.[dE].I.K.[NCCC[C@@H](N[*:1])C(=O)[*:2]].I.[dF].H.[dD].N}$PEPTIDE1,PEPTIDE1,5:R3-11:R2$$$V2.0)	–	–	–	–	–	–	–	–	–	–	–	–	–	–	–	1.827
